Assay results taken from PubChem BioAssay (NCI).
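Briefly, cells in 96-well plates were exposed to five compound concentrations for 48 h, and endpoints were estimated by linear interpolation. The concentration for 50% growth inhibition is given as GI50. TGI denotes the concentration required for complete inhibition of growth.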

Assays:
Experiment in all cases: NCI-60 cell line screen, 48 h
HOP-62 NSCLC = system: HOP-62 NSCLC
NCI-H23 lung = system: NCI-H23 lung
HT29 colon = system: HT29 colon
U251 CNS = system: U251 CNS
SK-MEL-2 melanoma = system: SK-MEL-2 melanoma
NCI-H522 lung = system: NCI-H522 lung
SK-OV-3 ovarian = system: SK-OV-3 ovarian
OVCAR-5 ovarian = system: OVCAR-5 ovarian
OVCAR-3 ovarian = system: OVCAR-3 ovarian
SNB-19 CNS = system: SNB-19 CNS
LOX IMVI melanoma = system: LOX IMVI melanoma
MOLT-4 leukemia = system: MOLT-4 leukemia
MDA-MB-231 breast = system: MDA-MB-231 breast
ACHN renal = system: ACHN renal
HL-60(TB) leukemia = system: HL-60(TB) leukemia
TK-10 renal = system: TK-10 renal
NCI-H226 lung = system: NCI-H226 lung
DU-145 prostate = system: DU-145 prostate
BT-549 breast = system: BT-549 breast
SR leukemia = system: SR leukemia
NCI-H460 lung = system: NCI-H460 lung
HS 578T breast = system: HS 578T breast
MDA-MB-468 breast = system: MDA-MB-468 breast
CAKI-1 renal = system: CAKI-1 renal
EKVX NSCLC = system: EKVX NSCLC
UACC-62 melanoma = system: UACC-62 melanoma
SNB-75 CNS = system: SNB-75 CNS
SF-539 CNS = system: SF-539 CNS
A549 NSCLC = system: A549 NSCLC
HOP-92 NSCLC = system: HOP-92 NSCLC
K-562 leukemia = system: K-562 leukemia
SK-MEL-28 melanoma = system: SK-MEL-28 melanoma
PC-3 prostate = system: PC-3 prostate
MCF7 breast = system: MCF7 breast
HCT-116 colon = system: HCT-116 colon
KM12 colon = system: KM12 colon
SW-620 colon = system: SW-620 colon
OVCAR-4 ovarian = system: OVCAR-4 ovarian
A498 renal = system: A498 renal
HCT-15 colon = system: HCT-15 colon
OVCAR-8 ovarian = system: OVCAR-8 ovarian
SF-268 CNS = system: SF-268 CNS
MALME-3M melanoma = system: MALME-3M melanoma
IGROV1 ovarian = system: IGROV1 ovarian
RXF 393 renal = system: RXF 393 renal
MDA-MB-435 = system: MDA-MB-435
T-47D breast = system: T-47D breast
COLO 205 colon = system: COLO 205 colon
SN12C renal = system: SN12C renal
M14 melanoma = system: M14 melanoma
SF-295 CNS = system: SF-295 CNS
SK-MEL-5 melanoma = system: SK-MEL-5 melanoma
CCRF-CEM leukemia = system: CCRF-CEM leukemia
HCC-2998 colon = system: HCC-2998 colon
786-0 renal = system: 786-0 renal
UO-31 renal = system: UO-31 renal
UACC-257 melanoma = system: UACC-257 melanoma
RPMI-8226 leukemia = system: RPMI-8226 leukemia

## O=c1[nH]n(C(=S)N/N=C/c2ccccc2Cl)c(=O)c2ccccc12
HOP-62 NSCLC
  GI50: 3.14 µM
  TGI: 10.8 µM
NCI-H23 lung
  GI50: 1.97 µM
  TGI: 4.56 µM
HT29 colon
  GI50: 3.96 µM
  TGI: 13.2 µM
U251 CNS
  GI50: 2.87 µM
  TGI: 10.4 µM
SK-MEL-2 melanoma
  GI50: 1.85 µM
  TGI: 4.19 µM
NCI-H522 lung
  GI50: 2.06 µM
  TGI: 5.4 µM
SK-OV-3 ovarian
  GI50: 4.82 µM
  TGI: 16.1 µM
OVCAR-5 ovarian
  GI50: 3.56 µM
  TGI: 10.6 µM
OVCAR-3 ovarian
  GI50: 3.36 µM
  TGI: 12.8 µM
SNB-19 CNS
  GI50: 3.87 µM
  TGI: 14.3 µM
LOX IMVI melanoma
  GI50: 2.87 µM
  TGI: 10.4 µM
MOLT-4 leukemia
  GI50: 1.82 µM
  TGI: 5.16 µM
MDA-MB-231 breast
  GI50: 2.99 µM
  TGI: 8.61 µM
ACHN renal
  GI50: 3.64 µM
  TGI: 12.8 µM
HL-60(TB) leukemia
  GI50: 1.65 µM
  TGI: 4.5 µM
TK-10 renal
  GI50: 5.05 µM
  TGI: 17.3 µM
NCI-H226 lung
  GI50: 2.88 µM
  TGI: 8.54 µM
DU-145 prostate
  GI50: 3.84 µM
  TGI: 14.5 µM
BT-549 breast
  GI50: 3.11 µM
  TGI: 11.9 µM
SR leukemia
  GI50: 1.86 µM
  TGI: 5.08 µM
NCI-H460 lung
  GI50: 2.11 µM
  TGI: 5.85 µM
HS 578T breast
  GI50: 2.65 µM
  TGI: 9.55 µM
MDA-MB-468 breast
  GI50: 1.83 µM
  TGI: 4.46 µM
CAKI-1 renal
  GI50: 3.7 µM
  TGI: 15.5 µM
EKVX NSCLC
  GI50: 2.73 µM
  TGI: 10.8 µM
UACC-62 melanoma
  GI50: 2.91 µM
  TGI: 12.4 µM
SNB-75 CNS
  GI50: 2.08 µM
  TGI: 8.43 µM
SF-539 CNS
  GI50: 2.56 µM
  TGI: 6.26 µM
A549 NSCLC
  GI50: 2.93 µM
  TGI: 10.7 µM
HOP-92 NSCLC
  GI50: 2.41 µM
  TGI: 7.29 µM
K-562 leukemia
  GI50: 2.62 µM
  TGI: 10.6 µM
SK-MEL-28 melanoma
  GI50: 4.6 µM
  TGI: 16.1 µM
PC-3 prostate
  GI50: 4.89 µM
  TGI: 17.9 µM
MCF7 breast
  GI50: 2.4 µM
  TGI: 11.3 µM
HCT-116 colon
  GI50: 3.44 µM
  TGI: 14.1 µM
KM12 colon
  GI50: 3.34 µM
  TGI: 12.5 µM
SW-620 colon
  GI50: 3.01 µM
  TGI: 10.5 µM
OVCAR-4 ovarian
  GI50: 4.46 µM
  TGI: 16.6 µM
A498 renal
  GI50: 3.66 µM
  TGI: 12.1 µM
HCT-15 colon
  GI50: 2.24 µM
  TGI: 6.36 µM
OVCAR-8 ovarian
  GI50: 2.08 µM
  TGI: 5.48 µM
SF-268 CNS
  GI50: 3.36 µM
  TGI: 13.8 µM
MALME-3M melanoma
  GI50: 5.64 µM
  TGI: 18.5 µM
IGROV1 ovarian
  GI50: 3.42 µM
  TGI: 11.5 µM
RXF 393 renal
  GI50: 2.58 µM
  TGI: 7.71 µM
MDA-MB-435
  GI50: 2.88 µM
  TGI: 12.8 µM
T-47D breast
  GI50: 2.55 µM
  TGI: 8.92 µM
COLO 205 colon
  GI50: 2.82 µM
  TGI: 7.73 µM
SN12C renal
  GI50: 3.01 µM
  TGI: 10.1 µM
M14 melanoma
  GI50: 2.96 µM
  TGI: 11.4 µM
SF-295 CNS
  GI50: 2.48 µM
  TGI: 6.79 µM
SK-MEL-5 melanoma
  GI50: 3.03 µM
  TGI: 11.9 µM
CCRF-CEM leukemia
  GI50: 2.29 µM
  TGI: 7.56 µM
HCC-2998 colon
  GI50: 2.27 µM
  TGI: 4.79 µM
786-0 renal
  GI50: 4.43 µM
  TGI: 16 µM
UO-31 renal
  GI50: 3.78 µM
  TGI: 15 µM
UACC-257 melanoma
  GI50: 4.1 µM
  TGI: 16.8 µM
RPMI-8226 leukemia
  GI50: 2.44 µM
  TGI: 7.83 µM
